Measurements reported in patent publication US20030134859A1 (SANKYO COMPANY, LIMITED, priority 2000, published 2003).
Read-outs that look alike come from different tables or passages of the source.

Columns and labels:
TNF-α production = assay: Inhibitory activity against cytokine (TNF-α) production in LPS-stimulated RAW264.7 cells; type: cell-based, mouse; settings: Mus musculus, RAW264.7, 15 h, 1 μM test compound, LPS 10 ng/mL
In short: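 Mouse RAW264.7 macrophages (5,000 cells/well) stimulated with 10 ng/mL LPS (final) and treated with test compound at 1 μM final for 15 h at 37 °C. Supernatant mouse TNF-α measured by ELISA; % inhibition = 100−(A−B)/(C−B)×100, using unstimulated and LPS-only controls.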

Balb/c mice = assay: Prevention of concanavalin A liver injury; type: in vivo, mouse; settings: Mus musculus, po, 24 h, 10 mg/mL suspension at 10 mL/kg, 30 min prior to Con A, plasma 24 hr after Con A
Description: Five (5) Balb/c mice (female, 6-8 weeks old) per group were used. Liver injury was elicited in the mouse by injection of concanavalin A (Con A) dissolved in saline (2.0 mg/mL) into the tail vein at a volume of 10 mL/kg of the solution (Hepatology, 21, 190-198 (1995)).
The test compounds were suspended in distilled water containing 0.5% CMC, at a concentration of 10 mg/mL. This suspended solution was orally administered to the mouse at a volume of 10 mL/kg, 30 min prior to injection of Con A (group A).
Apart from this group, distilled water containing 0.5% CMC powder, instead of the test compound, was orally administered in the second group of mice (group B). In the 3rd group, nothing was given to the mice (group C).
Twenty four (24) hr after the injection of Con A, blood was collected from the abdominal aorta of the mice and the plasma was isolated while mixing with heparin. Activities of glutamic acid oxaloacetic acid transaminase (AST) and glutamic acid pyruvic acid transaminase (ALT) in the plasma were determined according to the methods described by Nagakawa et al. (J. Pharmacol. Exp. Ther., 264, 496-500 (1993)). From the values obtained inhibitory rates of the test compound against AST and ALT levels which had been increased by injection of Con A, were obtained based on the following equation.
Inhibitory Rate(%)={1−[(A−C)/(B−C)]}×100
A: The average level of AST or ALT in the group A
B: The average level of AST or ALT in the group B
C: The average level of AST or ALT in the group C

lenses = assay: Cataract assessment: opacity of cultured lenses exposed to hydrogen peroxide; set-up: species or system rat; settings: 100 nM test compound with 5 mM hydrogen peroxide; 24 hr; clear: 0, slightly opaque: 1, moderately opaque: 2
Description: The lenses were isolated from Sprague-Dawley rats (male, purchased from SLC Japan), and the lenses were pre-cultured in a medium (Medium-199: GIBCO BRL) for 3 hr and the lenses maintaining transparency were selected and used in the experiment. The crystalline lenses were cultured for 24 hr in the following 3 groups; 1) in Medium-199 (3 mL), 2) in Medium-199 (3 mL) containing hydrogen peroxide (final concentration: 5 mM) and 3) in Medium-199 (3 mL) containing the test compound (final concentration: 100 nM), DMSO (final concentration: 0.1% v/v) and hydrogen peroxide (final concentration: 5 mM). After finalising culturing, the opacity of the lens was scored based on the following criteria: clear: 0, slightly opaque: 1, moderately opaque: 2. Thus the improving effect of the test compound on cataracts was assessed.

[1] = system: Mouse preadipocyte strain 3T3-L1; assay: Inhibition of differentiation as an indication of acetic acid uptake; type: cell-based; settings: Mus musculus, 3T3-L1, 0.1 μM test substance, control (0.01% dimethylsulfoxide) = 100%, read-out: Rate of Uptake (%) of [2-14C] acetic acid
In short: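 Confluent 3T3-L1 cells induced to differentiate for 4 days (insulin, IBMX, dexamethasone, 5% FBS) with test compound at 0.1 μM final or 0.01% DMSO, then 2 days in insulin maintenance medium, at 37 °C, 10% CO2. [2-14C]acetic acid uptake over 1 hr counted by scintillation; expressed as % of DMSO control.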

[2] = read-out: Preventing rate against liver injury, ALT (%)
[3] = read-out: Preventing rate against liver injury, AST (%)

| SMILES | inhibition at 1 µM (TNF-α production) | inhibition in vivo at 10000 µg/mL, 100 mg/kg (Balb/c mice; [2]) | inhibition in vivo at 10000 µg/mL, 100 mg/kg (Balb/c mice; [3]) | opacity of the lens (average score) (lenses) | activity at 0.1 µM [1] |
| --- | --- | --- | --- | --- | --- |
| CN(C)c1ccc(-c2ccc(NC(=O)c3cc([N+](=O)[O-])ccc3Cl)cc2)cc1 [Example 53, N-[4-(4-Dimethylaminophenyl)phenyl]-(2-chloro-5-nitrophenyl)carboxamide] | 15.6% | 22% | 1.7% | 1.0 | 76.2% |
| CC(C)(C)c1cc(-c2csc(NC(=O)c3cc([N+](=O)[O-])ccc3Cl)n2)cc(C(C)(C)C)c1O [Example 139, N-[4-(3,5-di-tert-Butyl-4-hydroxyphenyl)thiazol-2-yl]-(2-chloro-5-nitrophenyl)carboxamide] | 42.7% | 54% | 48.4% | 1.0 | 59.2% |
